# According to patent US9000015B2, “Compounds for the treatment of addiction” (Gilead Sciences, Inc., priority 2011, dated 2015):
# Tests used:
# [1] = tested on: Male SD rats; assay: Rat nicotine self administration, 7-day chronic treatment; format: in vivo
# Protocol: (§1) Male SD rats were trained to self administer i.v. nicotine (0.03 mg/kg/inj) daily (Monday to Friday) in standard operant chambers with retractable levers (MED Associates, Inc) as previously published (Levin et al., 2003; Levin et al., 2007). During the daily 45 min session, rats received 0.05 ml infusion of 0.03 mg/kg/infusion of nicotine every time the active lever was pressed. A cue light and tone turned on for 0.5 sec together with the activation of a pump that delivered the nicotine solution. Daily sessions were run for at least 10 days before the initiation of drug testing. Solutions of compounds of Example 2 and Example 5 were prepared fresh daily in Formulation 2B: 25% PEG400/5% Vit E TPGS/1% SLS/69% water with 0.5% Methocel) for oral dosing. Compound of Example 2 doses were administered in a counterbalanced design for testing 1 hr before each nicotine session. Every rat received all drug doses and vehicle in a randomly assigned order. The oral drug administrations were made twice per week.
# Upon completion of the acute compound of Example 5 treatment study, the same animals were used to test the effect of 7-day chronic oral administration of compound of Example 5 in the nicotine self administration model. Rats were treated orally with compound of Example 5 (5, 10 or 30 mg-eq/kg) or vehicle 1 hr before nicotine self administration session for 7 consecutive days. […] Similar to the acute treatment, the 5 mg-eq/kg dose was ineffective (FIG. 7). […] Animals in nicotine self administration studies had to reach pre defined criteria (e.g. rat strain, minimum number of nicotine infusions, consistent baseline nicotine self administration throughout the study, patent iv catheters, etc.) to be included in analysis.
# [2] = tested on: Male SD rats; assay: Rat nicotine self administration, acute treatment; format: in vivo; details: independent groups
# Protocol: as §1
# Compound of Example 5 was tested in a study using 4 independent groups. Each group received either oral vehicle or 1 of the 3 doses of compound of Example 5 (5, 10 or 30 mg-eq/kg). […] The 5 mg/kg dose was ineffective.
# [3] = target: HMAO-A (Homo sapiens (Human), UniProt P21397); assay: MAO-A assay (luminogenic MAO substrate); format: biochemical; details: microsome MAO-A, 160 uM substrate
# Protocol: (§2) MAO assays included luminogenic MAO substrate, reaction buffers, Luciferin Detection and the reconstitution buffer with eserase. Standard MAO reaction mixtures included microsome contained MAO-A (2 ug) or MAO-B (10 ug), 160 uM substrate for MAO-A or 16 uM substrate for MAO-B, MAO-A buffer (100 mM Hepes buffer, pH 7.5, 5% glycerol) or MAO-B buffer (100 mM Hepes, pH 7.5, 5% glycerol, 10% dimethyl sulfoxide) in a final volume of 30 ul. After 20 minutes of pre-incubation of the enzyme with compounds, the reaction was initiated by adding enzyme substrate and the reaction was allowed to proceed for 60 minutes. Reconstituted Luciferin Detection Reagent (30 ul) was then added is added to simultaneously stop the MAO reaction and convert the methyl ester derivative to luciferin and produce light. The amount of light produced is directly proportional to the activity of MAO. The mixtures were further incubated for 20 minutes and activity of the enzyme was determined using Perkin-Elmer Envision Reader.
# (§3) Note: […] refers to the concentration of a compound that inhibits a reaction by 50%. In the case of competitive inhibition, IC50=2Ki when the substrate is present at the Km concentration, as per the relationship: Ki=IC50/[1+(substrate concentration/Km)].
# [4] = target: HMAO-B (Homo sapiens (Human), UniProt P27338); assay: MAO-B assay (luminogenic MAO substrate); format: biochemical; details: microsome MAO-B, 16 uM substrate
# Protocol: as §2, §3
# [5] = tested on: male Sprague Dawley (SD) rats; assay: Rat cocaine cue reinstatement; format: in vivo; details: for inhibition of cocaine cue reinstatement compared to vehicle: 1 hr before session
# Protocol: Training of male Sprague Dawley (SD) rats had 3 separate stages. First, during self administration, animals were trained to lever press for cocaine with presentation of concomitant cues associated with drug delivery. Rats that reached criteria for addiction were included in the study. Afterward, during cue extinction, cocaine-cue dependent behavior was extinguished. Lastly, during cocaine cue reinstatement, the effect of compounds was tested on lever presses upon cue presentation (FIG. 2).
# Rats were trained to self administer i.v. cocaine (0.35 mg/kg/injection) daily (Monday to Friday) in standard operant chambers with retractable levers (Coulbourn Instruments, PA). During the daily 2 hr session, rats received a 0.05 ml infusion of 0.35 mg/kg cocaine every time the active lever was pressed. A cue light and tone turned on for 2 sec together with activation of a pump that delivered the cocaine solution. Rats were required to maintain an infusion rate of ≧20+ per day for at least 10 days before being moved to extinction training.
# During extinction sessions lever presses no longer produced cocaine infusion and cue light/tone presentation was absent. Rats received a maximum of 15 extinction sessions.
# On the next day after reaching extinction criteria, rats were treated orally with vehicle (Formulation 2B: 25% PEG400/5% Vit E TPGS/1% SLS/69% water with 0.5% Methocel) or drug (compound of Example 2 or compound of Example 5) before the cue reinstatement session. Cue reinstatement began with a tone and cue light. This 2 hr session was identical to the self-administration session (cue light and tone present upon active lever press) except that no cocaine was delivered. The number of active lever presses was compared to extinction lever responding. This is considered a measure of reinstatement. The next day, rats were returned to extinction sessions for at least 2 or 3 more sessions. Rats then received a second and last reinstatement session with an opposite treatment to the one received on the first reinstatement session (vehicle or drug treatment). […] The light/tone presentation triggers this response and it is interpreted as a measure of reinstatement even though cocaine is not available.
# [6] = target: recombinant human ALDH2 (Homo sapiens (Human), UniProt P05091); assay: ALDH2 assay (NADH formation); format: biochemical; details: 60 min pre-incubation, 150 uM formaldehyde, 2.5 mM NAD+; read-out: IC50 HALDH2
# Protocol: Standard ALDH2 reaction mixtures contained 150 uM formaldehyde, 2.5 mM NAD^+, 10 mM MgCl2 and 10 nM recombinant human ALDH2 in 50 mM Hepes buffer, pH 7.4, 0.01% Tween 20 in a final volume of 50 ul using 384-well plates. After 60 min of pre-incubation of compound with ALDH2 and formaldehyde, the reaction was started by adding NAD+ and the reaction mixture was allowed to proceed for 90 minutes. Activity of the enzyme was determined by monitoring NADH formation using Perkin-Elmer Envision Reader with excitation and emission wavelengths set at 340 and 460 nm, respectively.
# as §3
# [7] = tested on: Alcohol-preferring (iP) male rats; assay: Rat alcohol self administration; format: in vivo; details: 1 hr before session, vs vehicle
# From the text: Alcohol-preferring (iP) male rats were trained to daily (Monday to Friday) self-administer alcohol (10% v/v) under operant conditions. A fixed-ratio of 3 (FR3), where rats had to press a lever 3 times to get one drop of alcohol during 20-min sessions was used (Cowen et al, 2005a; Cowen et al., 2005b; Lawrence et al., 2006). Availability of alcohol was conditioned by the presence of an olfactory cue (2 drops of vanilla essence, placed on the bedding of the operant chamber directly under the active lever), plus a 1-sec light stimulus when FR3 was obtained. For each session, total alcohol and water responses were recorded. Following acquisition of lever pressing behavior and stable alcohol self-administration, rats were administered oral vehicle or compound of Example 5 (5, 10 and 30 mg-eq/kg) 1 hr before each session in a counterbalanced order. Every rat received all drug doses and vehicle once per week in a randomly assigned order.
# HMAO-B, sequence (P27338 whole entry): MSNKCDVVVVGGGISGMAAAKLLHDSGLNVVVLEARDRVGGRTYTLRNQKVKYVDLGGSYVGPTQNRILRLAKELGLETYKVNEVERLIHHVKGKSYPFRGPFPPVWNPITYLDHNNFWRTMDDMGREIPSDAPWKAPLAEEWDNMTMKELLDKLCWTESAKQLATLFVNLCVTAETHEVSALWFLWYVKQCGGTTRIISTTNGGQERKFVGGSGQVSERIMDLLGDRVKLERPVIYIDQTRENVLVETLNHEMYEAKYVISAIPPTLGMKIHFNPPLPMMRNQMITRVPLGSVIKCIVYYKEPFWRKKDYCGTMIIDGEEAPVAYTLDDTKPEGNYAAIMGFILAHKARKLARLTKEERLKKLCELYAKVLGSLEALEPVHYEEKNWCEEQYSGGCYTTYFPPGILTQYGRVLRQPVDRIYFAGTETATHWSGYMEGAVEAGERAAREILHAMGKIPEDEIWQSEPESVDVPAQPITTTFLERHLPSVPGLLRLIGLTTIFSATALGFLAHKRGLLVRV
# HMAO-A, sequence (P21397 whole entry): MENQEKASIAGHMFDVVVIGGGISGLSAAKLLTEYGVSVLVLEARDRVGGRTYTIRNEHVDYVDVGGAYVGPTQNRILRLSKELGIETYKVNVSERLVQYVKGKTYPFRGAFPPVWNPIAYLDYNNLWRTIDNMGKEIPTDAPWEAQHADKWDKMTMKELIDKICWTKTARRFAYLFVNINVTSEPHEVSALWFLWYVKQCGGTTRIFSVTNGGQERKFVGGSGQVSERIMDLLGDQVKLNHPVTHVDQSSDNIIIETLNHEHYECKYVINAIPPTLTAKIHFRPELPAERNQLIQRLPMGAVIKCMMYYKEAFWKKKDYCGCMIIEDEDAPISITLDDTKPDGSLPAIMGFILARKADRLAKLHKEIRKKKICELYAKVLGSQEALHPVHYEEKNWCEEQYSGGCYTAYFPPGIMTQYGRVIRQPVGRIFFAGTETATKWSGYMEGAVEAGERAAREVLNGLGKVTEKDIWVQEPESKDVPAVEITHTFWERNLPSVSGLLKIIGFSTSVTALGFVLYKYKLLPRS
# recombinant human ALDH2, sequence (P05091 18-517): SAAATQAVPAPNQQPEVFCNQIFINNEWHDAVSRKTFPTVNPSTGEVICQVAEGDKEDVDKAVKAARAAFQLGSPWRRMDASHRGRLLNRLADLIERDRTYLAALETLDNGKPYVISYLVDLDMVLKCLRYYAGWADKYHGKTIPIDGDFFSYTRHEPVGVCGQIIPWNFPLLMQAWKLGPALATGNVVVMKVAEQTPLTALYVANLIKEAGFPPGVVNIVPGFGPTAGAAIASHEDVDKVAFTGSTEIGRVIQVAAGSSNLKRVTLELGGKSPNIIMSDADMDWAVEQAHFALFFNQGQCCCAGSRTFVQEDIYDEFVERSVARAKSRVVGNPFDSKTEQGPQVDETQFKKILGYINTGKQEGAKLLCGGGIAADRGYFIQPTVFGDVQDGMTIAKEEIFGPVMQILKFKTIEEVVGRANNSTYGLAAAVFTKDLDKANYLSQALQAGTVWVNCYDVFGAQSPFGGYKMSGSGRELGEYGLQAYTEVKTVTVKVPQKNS
structure (smiles),measurement,setting,value
"O=C(NCc1ccc(-c2ccn(COP(=O)(O)O)c(=O)c2)cc1)c1c(Cl)cccc1Cl [Compound 14, phosphoric acid mono-(4-{4-[(2,6-dichloro-benzoylamino)-methyl]-phenyl}-2-oxo-2H-pyridin-1-ylmethyl) ester]",effect on number of nicotine infusions compared to vehicle,"[1]; 5 mg-eq/kg oral, 7 consecutive days",ineffective
same,inhibition of number of nicotine infusions compared to vehicle,"[1]; 10 mg-eq/kg oral, 7 consecutive days",48%
same,inhibition of number of nicotine infusions compared to vehicle,"[1]; 30 mg-eq/kg oral, 7 consecutive days",62%
same,tolerance to the therapeutic effect,"[1]; 7-day chronic oral administration, data not shown",no development of tolerance
same,effect on number of nicotine infusions compared to vehicle,[2]; 5 mg-eq/kg oral,ineffective
same,inhibition of number of nicotine infusions compared to vehicle,[2]; 10 mg-eq/kg oral,51%
same,inhibition of number of nicotine infusions compared to vehicle,[2]; 30 mg-eq/kg oral,68%
same,IC50,[3],> 130 µM
same,IC50,[4],> 130 µM
same,inhibition of cocaine cue reinstatement compared to vehicle,"[5]; 2.5 mg-eq/kg oral, p>0.05, N.S.",30%
same,effect on cocaine cue reinstatement versus vehicle,"[5]; 2.5 mg-eq/kg oral, lowest dose tested",not significantly different from vehicle
same,inhibition of cocaine cue reinstatement compared to vehicle,[5]; 5 mg-eq/kg oral,59%
same,inhibition of cocaine cue reinstatement compared to vehicle,[5]; 10 mg-eq/kg oral,55%
same,inhibition of cocaine cue reinstatement compared to vehicle,[5]; 30 mg-eq/kg oral,50%
same,IC50,[6],> 10 µM
same,number of lever presses for alcohol,[7]; 10 mg-eq/kg oral,significantly decreased
same,number of lever presses for alcohol,[7]; 30 mg-eq/kg oral,significantly decreased
